This passage reports Absorbance and Turbidity results from patent US20250129009A1, “Compound and Method for Identifying Impurities Included Therein” (LG CHEM, LTD., priority 2022, published 2025).

This series in a line: Measurement of turbidity by UV/Vis spectroscopy (Method 1). The class given is physicochemical. Conditions: 20 wt % aqueous solution; for Absorbance: light at 290 nm, 1 mm cuvette, DI water reference. The protocol:
A 20 wt % aqueous solution of the compound is analyzed by UV/Vis spectroscopy to measure the absorbance Abs to light at a wavelength of 290 nm, and the turbidity Tb is derived from the measured absorbance Abs by the following Equation 1.
A 20 wt % aqueous solution of the compound is analyzed by UV/Vis spectroscopy to measure the absorbance Abs to light at a wavelength of 290 nm, and a turbidity Tb is derived from the measured absorbance Abs by the following Equation 1.
The absorbance of light at a wavelength of 290 nm is confirmed by analyzing 5 types of turbidity standard solutions (0, 1, 10, 100, and 1000 NTU, respectively) by UV/Vis spectroscopy (using Agilent 8453, 200 to 1100 nm, resolution 2 nm, 1 mm cuvette). In this case, an empty cuvette cell is used as a reference for measurement. A calibration curve (Equation 1) is derived from the absorbance according to the 0 NTU to 1,000 NTU interval. (NTU: Nephelometric Turbidity Unit, water quality standard 1 NTU)
UV/Vis was measured for Samples 1 to 7 prepared in Preparation Example B above using Method 1 of the present disclosure, and the results are illustrated in FIG. 1. Further, values obtained by converting the measured absorbance (Abs) into turbidity using the following Equation 1 are shown in the following Table 1.
500 mg of each of Samples 1 to 7 were put into a vial, a 20 wt % aqueous solution was prepared using distilled water (DI water), and then UV/Vis spectroscopy (using Agilent 8453, 200 to 1100 nm, resolution 2 nm, 1 mm cuvette) was analyzed to confirm the absorbance of light at a wavelength of 290 nm. In this case, DI water was used as a reference for measurement.
The absorbance of light at a wavelength of 290 nm was confirmed by analyzing 5 types of turbidity standard solutions (0, 1, 10, 100, and 1000 NTU, respectively) by UV/Vis spectroscopy (using Agilent 8453, 200 to 1100 nm, resolution 2 nm, 1 mm cuvette). In this case, an empty cuvette cell was used as a reference for measurement.
A calibration curve (Equation 1) was derived from the absorbance according to the 0 NTU to 1,000 NTU interval. (NTU: Nephelometric Turbidity Unit, water quality standard 1 NTU)
Turbidity was derived by introducing the absorbance of Samples 1 to 7 confirmed in 1) above into Equation 1.

For `C=CC(=O)OCC[N+](CCCC)(CCCC)CCCCCCCCCCCC` [Sample 2], the Absorbance came to 0.1615.

As for `C=CC(=O)OCC[N+](CCCC)(CCCC)CCCCCCCCCCCC` [Sample 3], the Absorbance is 0.3459.

`C=CC(=O)OCC[N+](CCCC)(CCCC)CCCCCCCCCCCC` [Sample 5] came in with an Absorbance of 0.2796. The Turbidity (converted from absorbance at 290 nm by Equation 1 (calibration 0 to 1,000 NTU standards)) turned out to be 74.
